Read-outs that look alike come from different tables or passages of the source. Ends that are not written are not given here.
What was measured:
[1] = tested on: human peripheral blood mononuclear cells; assay: T cell proliferation of human PBMCs (3H-thymidine incorporation); type: cell-based; details: compared to non-lipidated peptide counterparts, FIG. 9
Bone marrow derived DCs = assay: Activation and MHC markers on bone marrow derived DCs; type: cell-based, C57BL/6 mice; details: BMDCs day 7, treated 12 hrs
Protocol: FIG. 4. Lipidated peptides [immunogens] enhance DC maturation. (A) BALB/c mice were immunized with lipidated peptides [immunogen] and free peptides. Total splenocytes were recovered and in vitro stimulated with the lipidated and free peptides. After 48 hrs of incubation, they were harvested and stained for DC population (CD11c^+/CD40^+). CD11c^+/CD40^+ population indicates mature DCs. Lipidated immunogen constructs were able to induce DC maturation compared to their unlipidated counterparts. (B) Bone marrow derived DCs from C57BL/6 mice were cultured using standard protocol. On day 7 of culture they were treated with free or lipidated peptides for 12 hrs and then the cells were harvested and stained for activation markers. […] (C) On day 7 of culture, bone marrow derived DCs were treated with free or lipidated peptides for 12 hrs. Later on, the cells were harvested and stained for CD74 (immature MHC) and IA^b (mature MHC).

CD4 T cells = assay: Intracellular staining for IFN-γ in CD4 T cells; type: cell-based; details: splenocytes of mice immunized with lipopeptide containing SEQ ID No. 1, cultured 48 h, restimulated 6 h, FIG. 6
Protocol: FIG. 6. CD4 T cells from mice immunized with immunogen containing SEQ ID No. 1 produced IFN-γ on in vitro peptide restimulation. Mice were immunized with lipopeptide containing SEQ ID No. 1. Splenocytes from the immunized mice were cultured with A) medium; B) Pam2Cys; C) non-lipidated peptide (SEQ ID No. 1); D) lipopeptide (containing SEQ ID No. 1) for 48 h. Cells were restimulated for 6 h and stained for surface CD4 and intracellular for IFN-γ. Representative flow cytometry contours depict IFN-γ producing CD4 T cells and numbers indicate their percentage.
Mice were immunized with the developed immunogenic lipopeptides (20 nmol/animal). Twenty-one days later, a booster dose (10 nmol) was administered. Animals were sacrificed 45 days post booster immunization.
Lymphocytes (2×10^6 cells/ml) were cultured with peptides in triplicates in 96 w plate for 48 h. Cells were pooled and washed twice with wash buffer (PBS containing FBS-1%). Cells were re-stimulated with PMA (50 ng/ml) and ionomycin (1 μg/ml) for 6 h/37° C. and in the last 4 h brefeldin A (10 μg/ml) was added in cultures. After 6 h of activation, cells, were washed twice with staining buffer (BSA-1%, NaN3-0.01% in PBS). […] Finally, cells were fixed in parafolmaldehyde-1% and acquired on FACS Aria II and data was analyzed by FACS DIVA (BD Biosciences, San Jose, Calif.).

M. tuberculosis H37Rv [2] = tested on: M. tuberculosis H37Rv; set-up: species or system mice; details: mouse, in vivo
M. tuberculosis H37Rv [3] = tested on: M. tuberculosis H37Rv; set-up: species or system Duncan-Hartley guinea pigs; details: guinea pig, in vivo
[4] = compared to free peptide, FIG. 4C

Compound | proliferation of human PBMCs from sputum positive tuberculosis patient [1] | expression of CD74 (immature MHC) (Bone marrow derived DCs; [4]) | expression of IA^b (mature MHC) (Bone marrow derived DCs; [4]) | expression of CD80, CD86, CD40 (Bone marrow derived DCs; compared to p91 treated cells, FIG. 4B) | production of IFN-γ in CD4 T cells (CD4 T cells) | Mycobacterial load in lungs (CFU) (M. tuberculosis H37Rv [2]) | Mycobacterial load in lungs (CFU) (M. tuberculosis H37Rv [3])
L91: immunogen wherein X1=SEQ ID. No. 1 and X2=0; peptide linked via two serines to Pam2Cys (SEFAYGSFVRTVSLPVGADE; also: linked via two serines to Pam2Cys, end not given here; listed as Mycobacterium tuberculosis) | enhanced the proliferation | decrease in expression | enhanced expression | enhanced expression | predominant production of IFN-γ | restricted the growth of mycobacterium significantly | significantly lower bacterial load in lungs
CCCCCCCCCCCCCCCC(=O)OCC(CSC[C@H](N)C(=O)O)OC(=O)CCCCCCCCCCCCCCC (stereo partly drawn) [Pam2Cys, S-[2,3-bis(palmitoyloxy)propyl]cysteine, reference compound] | – | – | – | – | did not elicit production of IFN-γ | – | –
